pKi: −log10 of the molar value. Read-outs that look alike come from different tables or passages of the source. A value given as a limit tells only on which side of the number the result lay.

Our source for the Ki and Kb values is patent US6720324B2, “Selective melanin concentrating hormone-1 (MCH1) receptor antagonists and uses thereof” (Synaptic Pharmaceutical Corporation, priority 2000, dated 2004).

For one assay, the target named is T1, human GALR1 (Homo sapiens, UniProt P47211).
T1 construct: expressed in transfected cells
T1 sequence (P47211 1-349): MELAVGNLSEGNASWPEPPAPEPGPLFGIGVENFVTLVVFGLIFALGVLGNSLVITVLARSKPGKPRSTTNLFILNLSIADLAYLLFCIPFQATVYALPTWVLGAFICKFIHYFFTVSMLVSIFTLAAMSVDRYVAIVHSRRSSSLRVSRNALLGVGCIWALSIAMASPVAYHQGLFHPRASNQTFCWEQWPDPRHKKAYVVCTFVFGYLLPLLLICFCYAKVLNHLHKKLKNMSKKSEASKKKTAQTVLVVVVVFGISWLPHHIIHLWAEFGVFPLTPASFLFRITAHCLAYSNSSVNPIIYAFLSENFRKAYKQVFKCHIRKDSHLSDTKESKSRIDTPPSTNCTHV
As to the kind of experiment: Radioligand binding assay, cloned receptor. The note with it: read-out: hGALR1 Ki. How it is done: (§1) For binding assays, pellets of transfected cells are suspended in ice-cold buffer (20 mM Tris.HCl, 5 mM EDTA, pH 7.4) and homogenized by sonication for 7 sec. The cell lysates are centrifuged at 200×g for 5 min at 4° C. The supernatants are then centrifuged at 40,000×g for 20 min at 4° C. The resulting pellets are washed once in the homogenization buffer and suspended in binding buffer (see methods for radioligand binding). Protein concentrations are determined by the method of Bradford (1976) using bovine serum albumin as the standard. Binding assays are usually performed immediately, however it is possible to prepare membranes in batch and store frozen in liquid nitrogen for future use.
(§2) The methods to obtain the cDNA of the human NPY1, NPY5, GALR1, GALR2, and GALR3 and rat 5-HT2C receptors, express said receptors in heterologous systems, and carry out assays to determine binding affinity are described in the following publications and above: human NPY1 (Larhammar et al., 1992), human NPY5 (U.S. Pat. No. 5,602,024, the disclosure of which is hereby incorporated by reference in its entirety into this application), human Gal1 (Habert-Ortoli et al., 1994), human Gal2 (Smith et al., 1997), human Gal3 (Smith et al., 1998), and rat 5-HT2C (Julius et al., 1988).

Another assay concerns the target T2, human GALR3 (Homo sapiens, UniProt O60755).
T2 construct: expressed in transfected cells
T2 sequence (O60755 1-368): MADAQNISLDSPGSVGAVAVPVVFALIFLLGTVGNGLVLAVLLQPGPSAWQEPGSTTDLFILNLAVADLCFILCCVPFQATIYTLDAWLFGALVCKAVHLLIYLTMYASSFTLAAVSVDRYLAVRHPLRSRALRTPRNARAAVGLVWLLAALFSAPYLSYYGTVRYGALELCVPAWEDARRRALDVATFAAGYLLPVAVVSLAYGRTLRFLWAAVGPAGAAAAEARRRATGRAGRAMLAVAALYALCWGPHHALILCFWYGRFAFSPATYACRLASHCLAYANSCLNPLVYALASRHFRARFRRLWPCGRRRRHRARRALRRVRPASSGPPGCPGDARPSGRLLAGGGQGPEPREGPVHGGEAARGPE
As to the kind of experiment: Radioligand binding assay, cloned receptor. The note with it: read-out: hGALR3 Ki. How it is done:
as §1, §2

Another assay concerns the target T3, human NPY1 (Homo sapiens, UniProt P25929).
T3 construct: expressed in transfected cells
T3 sequence (P25929 1-384): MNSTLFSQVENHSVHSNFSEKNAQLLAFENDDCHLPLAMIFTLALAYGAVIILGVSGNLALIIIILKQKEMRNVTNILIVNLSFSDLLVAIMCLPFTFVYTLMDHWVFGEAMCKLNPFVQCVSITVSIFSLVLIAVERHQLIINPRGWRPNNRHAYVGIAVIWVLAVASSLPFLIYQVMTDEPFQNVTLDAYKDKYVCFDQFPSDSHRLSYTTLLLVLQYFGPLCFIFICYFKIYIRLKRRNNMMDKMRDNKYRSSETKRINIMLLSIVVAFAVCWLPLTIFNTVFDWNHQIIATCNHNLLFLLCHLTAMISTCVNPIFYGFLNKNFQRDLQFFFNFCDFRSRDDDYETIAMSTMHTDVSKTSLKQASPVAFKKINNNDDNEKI
Put plainly: Radioligand binding assay, cloned receptor. The note with it: read-out: hNPY1 Ki. As for the experimental part: as §1, §2

Another assay addresses T4, human NPY5 (Homo sapiens, UniProt Q15761).
T4 construct: expressed in transfected cells
T4 sequence (Q15761 1-445): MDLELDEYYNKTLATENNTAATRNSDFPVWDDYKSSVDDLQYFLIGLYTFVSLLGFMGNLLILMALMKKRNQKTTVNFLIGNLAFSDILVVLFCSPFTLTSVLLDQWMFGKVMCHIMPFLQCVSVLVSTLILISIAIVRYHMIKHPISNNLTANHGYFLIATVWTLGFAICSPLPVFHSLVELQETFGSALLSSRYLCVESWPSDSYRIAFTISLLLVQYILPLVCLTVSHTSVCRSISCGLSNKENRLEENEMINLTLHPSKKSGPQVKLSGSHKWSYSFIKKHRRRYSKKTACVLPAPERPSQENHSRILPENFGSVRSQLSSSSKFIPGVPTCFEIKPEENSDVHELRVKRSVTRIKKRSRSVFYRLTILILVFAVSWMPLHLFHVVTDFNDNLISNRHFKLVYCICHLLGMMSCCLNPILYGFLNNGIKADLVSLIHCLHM
Put plainly: Radioligand binding assay, cloned receptor. The settings on record: read-out: hNPY5 Ki. How it is done: as §1, §2

The next assay has as its target human MCH1 receptor (Homo sapiens, UniProt Q99705). As to the kind of experiment: Functional assay: intracellular calcium mobilization (antagonist potency Kb). The assay is classed as cell-based. Further details: expressed in transfected cells; host or cells: COS-7 cells, transient, DEAE-dextran, plasmid pEXJ.HR-TL231 (ATCC 203197). How it is done:
Intracellular calcium mobilization assays for the MCH1 receptor were carried out using plasmid pEXJ.HR-TL231 (ATCC Accession No. 203197). COS-7 cells were transiently transfected with DNA encoding the MCH1 receptor utilizing the DEAE-dextran method as described above. The intracellular free calcium concentration was measured by fluorescent imaging using the calcium sensitive fluorscent dye Fluo-3. COS-7 cells expressing the human MCH1 receptor were seeded onto sterile 96 well plates, washed with Hank's balanced salt solution (HBSS), containing 20 mM HEPES, 2.5 mM probenecid, and 0.1% BSA, and loaded with the same buffer containing 3.8 μM Fluo-3 for 1 hour at 37° C. After washing with HBSS to remove the fluo-3 solution, cells were equilibrated for 10 minutes.
(Calcium flux is commonly read through the fluorescence of an indicator in the cells.)

Chain of human MCH1 receptor (Q99705 whole entry): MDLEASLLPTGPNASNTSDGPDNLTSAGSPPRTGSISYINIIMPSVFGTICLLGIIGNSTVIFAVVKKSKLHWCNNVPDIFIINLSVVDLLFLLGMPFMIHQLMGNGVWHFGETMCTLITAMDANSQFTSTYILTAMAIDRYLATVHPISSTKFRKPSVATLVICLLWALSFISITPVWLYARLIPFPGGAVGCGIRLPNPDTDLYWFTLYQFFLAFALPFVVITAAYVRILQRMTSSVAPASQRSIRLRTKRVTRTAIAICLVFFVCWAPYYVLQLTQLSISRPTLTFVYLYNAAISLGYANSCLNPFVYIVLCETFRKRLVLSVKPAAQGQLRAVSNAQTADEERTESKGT

As a reminder, the pKi is the negative decadic logarithm of the Ki, by convention in mol/L. As usually defined, the Kb is the affinity of an antagonist, worked out from how it opposes an agonist. Turning to “2-(3,4-DIFLUOROPHENYL)4,5-DIHYDROIMIDAZOLE-1-CARBOXYLIC ACID {3-[4-PHENYL-4-(4-BROMO-5-METHYLTHIOPNEN-2-YL)]PROPYL}-AMIDE [Example 19]”, the pKi at human GALR1 (Table 2), at human GALR1 (Table 3), at human GALR3 (Table 2), on human GALR3 (Table 3), at human NPY1 (Table 2) and at human NPY1 (Table 3) was less than 4.30 in each case. In addition, the pKi on human NPY5 (Table 2) and on human NPY5 (Table 3) was less than 4.30 in each case. The antagonist equilibrium constant (Kb) at human MCH1 receptor (Table 1, cloned human MCH1 receptor, functional assay, read-out: Kb (nM) hMCH1) is 7 nM; at human MCH1 receptor (Table 2, antagonist potency at the human MCH1 receptor, read-out: hMCH1 Kb), 7 nM; on human MCH1 receptor (Table 3, antagonist potency at the human MCH1 receptor, read-out: hMCH1 Kb), 7 nM.
